Experimental data taken from article PMC8262356, “SLC26A6-selective inhibitor identified in a small-molecule screen blocks fluid absorption in small intestine” (JCI Insight, 2021).

Biological target: T1, slc26a3 (Mus musculus, UniProt Q9WVC8)
T1 construct: expressed in transfected cells; host or cells: FRT cells coexpressing YFP
T1 sequence (Q9WVC8 1-757): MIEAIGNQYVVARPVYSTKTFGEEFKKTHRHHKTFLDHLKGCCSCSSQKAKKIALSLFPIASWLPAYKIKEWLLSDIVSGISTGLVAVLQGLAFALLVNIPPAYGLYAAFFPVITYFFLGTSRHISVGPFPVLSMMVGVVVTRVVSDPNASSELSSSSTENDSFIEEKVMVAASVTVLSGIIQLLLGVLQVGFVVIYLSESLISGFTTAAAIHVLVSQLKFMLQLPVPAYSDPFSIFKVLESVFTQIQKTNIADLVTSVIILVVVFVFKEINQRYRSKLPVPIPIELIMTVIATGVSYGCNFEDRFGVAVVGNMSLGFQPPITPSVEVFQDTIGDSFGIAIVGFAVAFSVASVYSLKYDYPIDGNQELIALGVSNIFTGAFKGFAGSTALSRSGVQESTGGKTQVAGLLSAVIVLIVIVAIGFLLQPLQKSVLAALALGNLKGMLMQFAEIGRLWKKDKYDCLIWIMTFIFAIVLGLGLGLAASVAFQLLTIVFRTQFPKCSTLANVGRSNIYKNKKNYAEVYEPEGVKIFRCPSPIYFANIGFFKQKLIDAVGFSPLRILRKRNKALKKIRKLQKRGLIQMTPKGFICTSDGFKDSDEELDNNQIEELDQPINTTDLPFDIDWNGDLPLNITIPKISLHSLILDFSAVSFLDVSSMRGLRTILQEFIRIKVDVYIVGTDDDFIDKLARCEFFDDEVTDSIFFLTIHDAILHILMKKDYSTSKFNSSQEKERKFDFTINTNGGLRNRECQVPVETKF
Test: Selectivity: Cl-/I- exchange in FRT cells coexpressing YFP and slc26a3
Assay type: cell-based
Conditions: 25 μM
Experimental: PAT1inh-B01 selectivity was studied by testing its effects on related SLC26A family anion transporters and the Cl^– channel TMEM16A. These measurements used a similar Cl^–/I^– exchange protocol, but FRT cells separately expressed each of the SLC26A family members or TMEM16A. […] PAT1inh-B01 selectivity was also tested by short-circuit current (Isc) in well-differentiated human bronchial epithelial (HBE) cells, which have a complex ion transport mechanism that includes cystic fibrosis transmembrane conductance regulator (CFTR), epithelial Na^+ channel (ENaC), and Ca^+2-activated chloride channels (CaCCs) ([13]). […] Potential PAT1inh-B01 cytotoxicity was studied in FRT cells.
Figure 3 PAT1inh-B01 selectivity and cytotoxicity. […] Cl^–/I^– exchange or I^– influx measured in FRT cells coexpressing YFP and SLC26A isoforms or TMEM16A, with data shown for 25 μM PAT1inh-B01, DMSO vehicle control, and 500 μM niflumic acid (positive control for SLC26A transporters) or 10 μM TMinh-23 (positive control for TMEM16A). […] (C) (left) Short-circuit current (Isc) in well-differentiated HBE cells measured in the absence (top) and presence (bottom) of 25 μM PAT1inh-B01. […]
YFP-based cellular assays of slc26a3, slc26a4, SLC26A9, and TMEM16A function were performed as described previously ([7]). […] The activities of ENaC, CFTR, and CaCC were determined using well-differentiated HBE cells as described previously ([13]). […]

inhibition of slc26a3: did not significantly inhibit
SMILES: Cc1c(Br)c(C(F)(F)F)nn1CC(=O)N1CCc2nc3cc(-c4ccccc4)[nH]n3c(=O)c2C1 [PAT1inh-B01]
